Results published in paper PMC4770308, “Discovery of a Chemical Tool Inhibitor Targeting the Bromodomains of TRIM24 and BRPF” (Journal of Medicinal Chemistry, 2015).

Assays:
[1] = biological target: T1, PHD/bromodomain of TRIM24 (Homo sapiens, UniProt O15164); test: Isothermal titration calorimetry, TRIM24; settings: single binding site model
T1 construct: His6 (N, cleaved yes); SUMO-1 (N, cleaved yes); made in house; host or cells: E. coli BL21(DE3)-R3-pRARE2
T1 sequence (O15164 825-1006): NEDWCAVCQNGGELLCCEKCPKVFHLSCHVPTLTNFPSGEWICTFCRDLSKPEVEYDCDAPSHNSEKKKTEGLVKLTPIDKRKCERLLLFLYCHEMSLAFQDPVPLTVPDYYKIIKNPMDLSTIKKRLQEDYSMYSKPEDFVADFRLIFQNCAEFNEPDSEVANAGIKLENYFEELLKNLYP

[2] = biological target: T2, BRPF1 bromodomain (BRPF1B) (Homo sapiens, UniProt P55201); test: Isothermal titration calorimetry, BRPF1; settings: single binding site model
T2 sequence (P55201 628-732 limits assumed): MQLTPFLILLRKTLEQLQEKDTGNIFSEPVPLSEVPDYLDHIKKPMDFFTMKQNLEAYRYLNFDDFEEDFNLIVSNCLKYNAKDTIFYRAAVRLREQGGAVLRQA

BRD1 (BRPF2) bromodomain = biological target: T3, BRD1 (BRPF2) bromodomain (Homo sapiens, UniProt O95696); test: Isothermal titration calorimetry, BRD1; settings: single binding site model
T3 sequence (O95696 562-666 limits assumed): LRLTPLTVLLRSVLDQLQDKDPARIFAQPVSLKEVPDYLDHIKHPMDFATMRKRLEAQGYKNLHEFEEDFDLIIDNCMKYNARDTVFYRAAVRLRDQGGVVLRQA

[3] = system: panel of 45 human bromodomains; test: Temperature shift assay, bromodomain selectivity panel; format: binding; settings: 45 bromodomains; ΔTm smaller than 1 degree not considered significant
[4] = biological target: T4, full length TRIM24 fused to GFP (Homo sapiens, UniProt O15164); test: FRAP assay, TRIM24; format: cell-based; settings: 1 μM, compared with N980F mutant
T4 sequence (O15164 1-1050): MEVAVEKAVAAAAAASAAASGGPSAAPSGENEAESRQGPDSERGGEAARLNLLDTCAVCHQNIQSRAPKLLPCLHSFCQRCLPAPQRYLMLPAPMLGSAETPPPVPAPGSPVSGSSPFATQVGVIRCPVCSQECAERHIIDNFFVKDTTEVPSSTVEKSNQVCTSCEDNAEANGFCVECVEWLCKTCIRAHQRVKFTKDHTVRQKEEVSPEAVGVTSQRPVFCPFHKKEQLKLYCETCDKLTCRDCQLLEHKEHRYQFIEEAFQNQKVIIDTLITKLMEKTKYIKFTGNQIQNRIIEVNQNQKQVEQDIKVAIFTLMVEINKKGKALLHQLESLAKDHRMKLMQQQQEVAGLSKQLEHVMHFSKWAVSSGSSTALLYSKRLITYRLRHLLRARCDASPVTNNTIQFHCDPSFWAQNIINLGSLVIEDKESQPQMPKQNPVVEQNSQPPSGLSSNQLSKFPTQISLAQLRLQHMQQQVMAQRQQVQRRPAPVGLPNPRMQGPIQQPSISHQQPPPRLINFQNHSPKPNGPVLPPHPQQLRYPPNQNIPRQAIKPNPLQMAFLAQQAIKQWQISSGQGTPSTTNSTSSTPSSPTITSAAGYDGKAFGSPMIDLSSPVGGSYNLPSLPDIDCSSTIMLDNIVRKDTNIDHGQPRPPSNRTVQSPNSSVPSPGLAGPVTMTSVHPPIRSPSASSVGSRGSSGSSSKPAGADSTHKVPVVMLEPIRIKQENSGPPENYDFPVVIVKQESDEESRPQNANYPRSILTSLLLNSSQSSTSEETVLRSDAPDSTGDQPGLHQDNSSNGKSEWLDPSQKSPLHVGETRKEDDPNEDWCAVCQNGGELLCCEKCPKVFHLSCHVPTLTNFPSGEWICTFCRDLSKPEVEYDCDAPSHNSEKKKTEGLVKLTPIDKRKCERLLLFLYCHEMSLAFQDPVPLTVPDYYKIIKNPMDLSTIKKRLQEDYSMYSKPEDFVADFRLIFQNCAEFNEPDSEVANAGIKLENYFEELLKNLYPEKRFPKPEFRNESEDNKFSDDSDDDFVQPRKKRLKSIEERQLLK

[5] = biological target: T5, triplicated BRPF1B bromodomain construct with nuclear localization signal (Homo sapiens, UniProt P55201); test: FRAP assay, BRPF1B; format: cell-based; settings: with SAHA
T5 sequence (P55201 628-732 limits assumed): T2 sequence (P55201 628-732 limits assumed)

[6] = system: panel of diverse cancer cell lines (MCF-7, RKO, MM1S, RCH-ACH, JJN-3); test: Cytotoxicity assay (CellTiter-Glo), cancer cell line panel; format: cell-based; settings: 72 hours, 5 x E-05 M to 8 x E-08 M
Experimental: (§1) A more comprehensive evaluation of the role of TRIM24 in cancer cell proliferation and chromatin biology would require the development of a tool compound with improved selectivity.
(§2) Calorimetric experiments were performed on a VPqITC microqcalorimeter (MicroCalTM, LLC Northampton, MA). Protein solutions were buffer exchanged by gel filtration or dialysis into buffer (20 mM Hepes pH 7.5, 150 mM NaCl, and 0.5 mM tris (2qcarboxyethyl) phosphine (TCEP)]. All measurements were carried out at 293.15 K while stirring at 286 rpm. The micro syringe was loaded with a protein solution of 250 µM, the compound solution was prepared at 20 µM and 2mL for the cell. All injections were performed using an initial injection of 2 µl followed by 34 injections of 8 µl with a duration of 16 sec per injection and a spacing of 240 sec between injection. The data were analysed with the MicroCal ORIGIN software package employing a single binding site model. The first data point was excluded from the analysis.
(§3) Thermodynamic parameters were calculated (∆G = ∆H q T∆S = qRTlnKB where ∆G, ∆H and ∆S are the changes in free energy, enthalpy and entropy of binding, respectively).
(§4) Temperature shift assays have been carried out as described in Fedorov et al. 2.
(§5) Fluorescence recovery after photobleaching (FRAP)
(§6) The TRIM24 FRAP assay has been carried out as described in Philpott et al.3. […]

[7] = system: MCF-7 breast cancer cell line; test: Cytotoxicity assay (CellTiter-Glo), MCF-7; format: cell-based; settings: 72 hours, concentration range tested
Experimental: as §1, §2, §3, §4, §5, §6

TRIM24 bromodomain = biological target: T6, TRIM24 bromodomain (Homo sapiens, UniProt O15164); test: AlphaScreen assay, TRIM24 bromodomain; format: binding; settings: 6-methoxy (R2) analogues
T6 sequence (O15164 899-1004 limits assumed): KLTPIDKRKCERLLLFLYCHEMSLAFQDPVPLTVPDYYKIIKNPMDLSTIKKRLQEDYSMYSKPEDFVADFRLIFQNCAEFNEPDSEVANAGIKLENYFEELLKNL
Experimental: However, the most interesting compounds of this series (3–5) also had 3–4 μM activity against TRIM24, which prompted us to explore this scaffold for the development of TRIM24 inhibitors (Table 1).

N (ITC stoichiometry), TRIM24 [1] | N (ITC stoichiometry), BRPF1B [2] | N (ITC stoichiometry), BRD1 (BRD1 (BRPF2) bromodomain) | fluorescent recovery time, BRPF1B FRAP (in words) [5] | activity against TRIM24 (in words) (TRIM24 bromodomain) | Compound | selectivity in temperature shift (ΔTm) panel (in words) [3] | fluorescent recovery half-time, TRIM24 FRAP (in words) [4] | cytotoxicity in cancer cell lines (in words) [6] | sensitivity of MCF-7 (in words) [7]
0.923 ± 0.003 | 0.996 ± 0.002 | 1.127 ± 0.02 | reduced recovery times | – | COc1ccc(Oc2cc3c(cc2NS(=O)(=O)c2ccc(OC)c(OC)c2)n(C)c(=O)n3C)cc1 [Compound 34] | excellent selectivity of 34 for BRPF1B/2 and TRIM24 | effectively reduced fluorescent recovery half-time | no significant cytotoxicity | resistant
– | – | – | – | lost activity against TRIM24 | COc1cc2c(cc1NS(=O)(=O)c1ccc(Br)cc1C)n(C)c(=O)n2C [Compound 8] | – | – | – | –
